Test results as given in article PMC7956753, “Development of ^18F-Labeled Radiotracers for PET Imaging of the Adenosine A2A Receptor: Synthesis, Radiolabeling and Preliminary Biological Evaluation” (International Journal of Molecular Sciences, 2021).

Key:
[1] = In vitro chemical stability in saline, PBS and n-octanol; format: physicochemical; details: 37 °C up to 60 min
Procedure: (§1) The chemical stability of [^18F]PPY1 and [^18F]PPY2 was investigated in isotonic saline, phosphate-buffered saline (PBS, pH 7.4) and n-octanol by incubation at 37 °C. Samples were taken at 15, 30 and 60 min of incubation time and analyzed by radio-TLC and radio-HPLC. LogD7.4 values of [^18F]PPY1 and of [^18F]PPY2 were experimentally determined in n-octanol/PBS at RT by the shake-flask method. The measurements were performed in triplicate.

A2AR = target: T1, A2AR (Mus musculus, UniProt Q60613); assay: In vitro autoradiography on mouse brain slices; format: binding, CD-1 mice; details: for fraction of total binding displaced by ZM241385 in striatum (specific binding): 10 µM ZM241385
T1 construct: Brains of CD-1 mice frozen in isopentane were cut using a cryostat; from tissue; host or cells: CD-1 mouse brain sections
Procedure: Brains of CD-1 mice frozen in isopentane were cut using a cryostat, thaw-mounted onto microscope slides, and after air-drying stored at −80 °C until use. Briefly, the brain sections were dried in a stream of cold air, and pre-incubated in 50 mM TRIS-HCl buffer (pH 7.4, 100 mM NaCl, 5 mM MgCl2, 1 mM EDTA) containing 1 µU/mL adenosine deaminase (ADA) for 15 min at RT. Afterwards, brain sections were incubated with 0.24 MBq/mL of [^18F]PPY1 (0.2 nM) or 0.26 MBq/mL of [^18F]PPY2 (5.1 nM) in buffer for 90 min at RT. Non-specific binding was determined in the presence of 10 µM ZM241385. Displacement of both radiotracers was evaluated with 10 µM PPY1 and PPY2, respectively. Subsequently, the sections were washed twice for 5 min in ice-cold TRIS-HCl buffer, and dipped for 5 s in ice-cold deionized water. The sections were rapidly dried in a stream of cold air before being exposed overnight on an imaging plate. Developed autoradiographs were analyzed in a phosphor imager (HD-CR 35, Duerr NDT GmbH, Bietigheim-Bissingen, Germany). Quantification was performed by using 2D-densitometric analysis (AIDA 2.31 software, raytest Isotopenmessgeräte GmbH, Straubenhardt, Germany).

[2] = Lipophilicity (LogD7.4), shake-flask method in n-octanol/PBS; format: physicochemical; details: pH 7.4, n-octanol-PBS, RT, n = 3
Procedure: as §1

[3] = In vivo metabolism (radiometabolite analysis of plasma and brain by radio-HPLC); details: CD-1 mice, i.v., 30 min p.i., n = 2
Procedure: The radiotracer was administered i.v. as bolus in awake CD-1 mice (40 MBq [^18F]PPY1; 30 MBq [^18F]PPY2; n = 2, respectively). At 30 min post injection (p.i.), blood samples were taken retroorbitally from the anesthetized animals. Plasma was separated by centrifugation at 8000 rpm at RT for 1 min (Centrifuge 5418, Eppendorf Vertrieb Deutschland GmbH, Wesseling-Berzdorf, Germany), and brain homogenized in 1 mL water on ice (10 strokes of a PTFE plunge at 1000 rpm in a borosilicate glass cylinder; Potter S Homogenizer; B. Braun Melsungen AG, Melsungen, Germany). For protein precipitation and extraction an ice-cold mixture of acetone/water (4/1; v/v) was used in a ratio of 4:1 (v/v) of solvent to plasma or brain homogenate, respectively. The samples were vortexed for 3 min, equilibrated on ice for 5 min, and centrifuged for 5 min at 10,000 rpm. After separating the supernatant, the precipitates were washed with 100 µL of the solvent mixture and subjected to the same procedure. The combined supernatants were concentrated at 75 °C under nitrogen flow to a final volume of approx. 100 µL and analyzed by analytical radio-HPLC (see section quality control). To determine the percentage of activity in the supernatants compared to total activity, aliquots of each step as well as the precipitates were quantified by a gamma counter (Wallac Wizard 1480; PerkinElmer, Turku, Finland).

[4] = PET/MR imaging (brain uptake and organ distribution); format: in vivo; details: CD-1 mice; for SUV60 min bladder / SUV60 min small intestine: 60 min; for maximum SUV ratio of striatum-to-cerebellum: after 4 min; for initial brain uptake, standardized uptake value (SUV): between 2 and 3 min; for initial uptake in striatum and cerebellum: followed by a fast washout
Procedure: For the time of the experiments, CD-1 mice were kept in a dedicated climatic chamber with free access to water and food under a 12:12 h dark:light cycle at a constant temperature (24 °C). The animals were anaesthetized (anesthesia unit U-410; agntho’s; Lidingö; Sweden) with isoflurane (1.8%, 0.35 L/min) delivered in a 60% oxygen/40% air mixture (Gas Blender 100 Series, MCQ instruments, Rome, Italy) and maintained at 37 °C with a thermal bed system. The formulated radiotracer was injected into the tail vein ([^18F]PPY1: 3.2–4.3 MBq in 150 µL isotonic saline and <1% EtOH/DMSO; Am: 150 GBq/µmol; […]; Am: 80 GBq/µmol) followed by a 60 min PET/MR scan (PET/MR 1Tesla; nanoScan®, MEDISO Medical Imaging Systems, Budapest, Hungary). Each PET image was corrected for random coincidences, dead time, scatter and attenuation (AC), based on a whole body (WB) MR scan. The list mode data was sorted into sinograms using a framing scheme of 12 × 10 s, 6 × 30 s, 5 × 300 s, […]. The reconstruction parameters for the list mode data were 3D-ordered subset expectation maximization (OSEM), 4 iterations, 6 subsets, energy window: 400–600 keV, coincidence mode: 1–5, ring difference: 81. The mice were positioned prone in a special mouse bed (heated up to 37 °C), with the head fixed to a mouth piece for the anesthetic gas supply with isoflurane in 40% air and 60% oxygen (anesthesia unit: U-410, agnthos, Lidingö, Sweden; Gas blender: MCQ, Rome, Italy). The PET data were collected by a continuous WB scan during the entire investigation. Following the 60 min PET scan a T1 weighted WB gradient echo sequence (TR/TE: 20/6.4 ms, NEX: 1, FA: 25, FOV: 64 × 64 mm, matrix: 128 × 128, slice thickness: 0.5 mm) was performed for AC and anatomical orientation. Image registration and evaluation of the volume of interest (VOI) was done with PMOD 3.9 (PMOD technologies LLC, Zurich, Switzerland). The respective brain regions were identified using the mouse brain atlas template Ma-Benveniste-Mirrione-FDG. Spherical VOI with diameters of 1 to 2 mm were placed at the center of the liver, stomach, and spleen. Small intestine, kidney, and bladder VOI were delineated from the PET signal. Heart wall and blood were delineated from the T1 weighted image avoiding spill over from neighboring organs. The activity data is expressed as mean SUV of the overall VOI.

T1 sequence (Q60613 whole entry): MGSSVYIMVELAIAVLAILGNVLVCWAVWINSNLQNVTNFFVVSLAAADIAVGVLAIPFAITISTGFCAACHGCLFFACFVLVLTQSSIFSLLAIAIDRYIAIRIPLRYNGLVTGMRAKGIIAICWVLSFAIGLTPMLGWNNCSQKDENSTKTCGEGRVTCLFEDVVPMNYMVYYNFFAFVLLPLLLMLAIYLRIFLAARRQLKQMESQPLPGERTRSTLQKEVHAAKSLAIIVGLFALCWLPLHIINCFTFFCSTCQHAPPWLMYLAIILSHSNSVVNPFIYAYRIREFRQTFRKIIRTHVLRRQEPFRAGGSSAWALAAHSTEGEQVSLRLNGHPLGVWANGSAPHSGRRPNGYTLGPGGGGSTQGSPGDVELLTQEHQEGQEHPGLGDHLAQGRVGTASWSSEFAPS

SMILES	Stability in saline, PBS and n-octanol [1]	distribution of radiotracer binding in mouse brain (A2AR)	fraction of total binding displaced by ZM241385 in striatum (specific binding) (A2AR)	logD [2]	intact radiotracer in brain, of total activity [3]	intact radiotracer in plasma, of total activity [3]	intact radiotracer in brain, of total activity ([3]; listed as [18F]PPY2)	initial SUV in heart, spleen, stomach and liver [4]	specific binding in striatum in vivo (PET) [4]	SUV60 min bladder [4]	SUV60 min small intestine [4]	maximum SUV ratio of striatum-to-cerebellum [4]	initial brain uptake, standardized uptake value (SUV) [4]	initial uptake in striatum and cerebellum [4]
Nc1nc(-c2ccco2)c2cnn(Cc3ccccc3[18F])c2n1 [[^18F]PPY2]	proven	observed in the striatum	62%	2.01 ± 0.16	83%	21%	more than 76%	< 3 SUV	lack of specific binding	18.5 SUV	6.7 SUV	1.3	1.2–1.4 SUV	~ 1.3 SUV
Nc1nc(-c2ccco2)c2cnn(Cc3ccc([18F])cc3)c2n1 [[^18F]PPY1]	proven	displaceable binding was detected in various brain regions	42%	1.59 ± 0.15	–	13%	–	< 3 SUV	lack of specific binding	8.2 SUV	21.9 SUV	1.5	1.2–1.4 SUV	~ 1.3 SUV
